Measurements as given in article PMC5218480 (PLoS ONE, 2017).

Tested on: MV-4-11 cells
Assay: Gene expression microarray analysis (Affymetrix PrimeView) and GSEA
Format: cell-based, human
Parameters: RFU PODN (11730768_x_at) / Fold change /veh PODN (11730768_x_at) / RFU LINC00158 (11744669_a_at) / Fold change /veh LINC00158 (11744669_a_at) / RFU DUSP10 (11751237_a_at) / Fold change /veh DUSP10 (11751237_a_at) / RFU ID3 (11757404_x_at) / Fold change /veh ID3 (11757404_x_at) / RFU PLEKHG5 (11737974_s_at) / Fold change /veh PLEKHG5 (11737974_s_at) / RFU LRRC4B (11730491_at) / Fold change /veh LRRC4B (11730491_at) / RFU GIMAP4 (11747438_a_at) / Fold change /veh GIMAP4 (11747438_a_at) / RFU KRT8 (11758183_x_at) / Fold change /veh KRT8 (11758183_x_at) / RFU CNN1 (11734310_a_at) / Fold change /veh CNN1 (11734310_a_at) / RFU VPS37D (11726825_at) / Fold change /veh VPS37D (11726825_at) / RFU C10orf10 (11716522_x_at) / Fold change /veh C10orf10 (11716522_x_at) / RFU KIR2DL2 /// KIR2DL4 /// KIR2DL5A /// KIR2DL5B /// KIR2DS1 /// KIR2DS2 /// KIR2DS3 /// KIR2DS4 /// KIR3DL3 /// KIR3DL3 /// KIR3DS1 (11738374_at) / Fold change /veh KIR2DL2 /// KIR2DL4 /// KIR2DL5A /// KIR2DL5B /// KIR2DS1 /// KIR2DS2 /// KIR2DS3 /// KIR2DS4 /// KIR3DL3 /// KIR3DL3 /// KIR3DS1 (11738374_at) / RFU C1QL1 (11718748_at) / Fold change /veh C1QL1 (11718748_at) / RFU TMPRSS4 (11747572_a_at) / Fold change /veh TMPRSS4 (11747572_a_at) / RFU HAMP (11756126_x_at) / Fold change /veh HAMP (11756126_x_at) / RFU RNFT2 (11725882_a_at) / Fold change /veh RNFT2 (11725882_a_at) / RFU NR4A2 (11747474_a_at) / Fold change /veh NR4A2 (11747474_a_at) / RFU ABCC12 (11746883_a_at) / Fold change /veh ABCC12 (11746883_a_at) / RFU TMEM136 (11760407_x_at) / Fold change /veh TMEM136 (11760407_x_at) / RFU CLDN22 /// WWC2 (11732394_at) / Fold change /veh CLDN22 /// WWC2 (11732394_at) / RFU HLA-DPB1 (11760878_x_at) / Fold change /veh HLA-DPB1 (11760878_x_at) / RFU SPINT1 (11716480_a_at) / Fold change /veh SPINT1 (11716480_a_at) / RFU GAP43 (11754022_s_at) / Fold change /veh GAP43 (11754022_s_at) / RFU A4GNT (11735810_at) / Fold change /veh A4GNT (11735810_at) / RFU PRB3 (11715151_x_at) / Fold change /veh PRB3 (11715151_x_at) / RFU TUBB4B (11761932_at) / Fold change /veh TUBB4B (11761932_at) / RFU CAPN14 (11732068_a_at) / Fold change /veh CAPN14 (11732068_a_at) / RFU TMCC2 (11721928_a_at) / Fold change /veh TMCC2 (11721928_a_at) / RFU IRGQ (11745062_a_at) / Fold change /veh IRGQ (11745062_a_at) / RFU FAM174B (11720279_a_at) / Fold change /veh FAM174B (11720279_a_at) / RFU TMPRSS4 (11748680_a_at) / Fold change /veh TMPRSS4 (11748680_a_at) / RFU FAM212B (11763350_a_at) / Fold change /veh FAM212B (11763350_a_at) / RFU PLEKHG5 (11743358_a_at) / Fold change /veh PLEKHG5 (11743358_a_at) / RFU ZSCAN30 (11745921_a_at) / Fold change /veh ZSCAN30 (11745921_a_at) / RFU CMKLR1 (11741424_a_at) / Fold change /veh CMKLR1 (11741424_a_at) / RFU LOC101060620 /// MAPK8IP1 (11723275_at) / Fold change /veh LOC101060620 /// MAPK8IP1 (11723275_at) / RFU SPTSSB (11747773_x_at) / Fold change /veh SPTSSB (11747773_x_at) / RFU PRSS12 (11739890_at) / Fold change /veh PRSS12 (11739890_at) / RFU BIN1 (11741810_x_at) / Fold change /veh BIN1 (11741810_x_at) / RFU WNT11 (11732464_a_at) / Fold change /veh WNT11 (11732464_a_at) / RFU C10orf10 (11716521_a_at) / Fold change /veh C10orf10 (11716521_a_at) / RFU C5orf56 (11738089_at) / Fold change /veh C5orf56 (11738089_at) / RFU CYB561 (11721691_x_at) / Fold change /veh CYB561 (11721691_x_at) / RFU ANKRD19P (11752326_a_at) / Fold change /veh ANKRD19P (11752326_a_at) / RFU OR2T12 /// OR2T33 /// OR2T8 (11738714_s_at) / Fold change /veh OR2T12 /// OR2T33 /// OR2T8 (11738714_s_at) / RFU VCAN (11748164_a_at) / Fold change /veh VCAN (11748164_a_at) / RFU JSRP1 (11732532_at) / Fold change /veh JSRP1 (11732532_at) / RFU KRTAP10-11 (11738290_x_at) / Fold change /veh KRTAP10-11 (11738290_x_at) / RFU MYO3A (11730013_a_at) / Fold change /veh MYO3A (11730013_a_at) / RFU EBF3 (11725865_a_at) / Fold change /veh EBF3 (11725865_a_at) / RFU CAMK2N1 (11719241_x_at) / Fold change /veh CAMK2N1 (11719241_x_at) / RFU C5orf56 (11738088_a_at) / Fold change /veh C5orf56 (11738088_a_at) / RFU OLFML3 (11715873_a_at) / Fold change /veh OLFML3 (11715873_a_at) / RFU LOC100653217 /// NTM (11731650_a_at) / Fold change /veh LOC100653217 /// NTM (11731650_a_at) / RFU MAPK11 (11762145_a_at) / Fold change /veh MAPK11 (11762145_a_at) / RFU FIZ1 (11724087_x_at) / Fold change /veh FIZ1 (11724087_x_at) / RFU OASL (11726364_x_at) / Fold change /veh OASL (11726364_x_at) / RFU SOX15 (11748057_x_at) / Fold change /veh SOX15 (11748057_x_at) / RFU CD79A (11719716_a_at) / Fold change /veh CD79A (11719716_a_at) / RFU HIST1H1D (11736915_at) / Fold change /veh HIST1H1D (11736915_at) / RFU CASKIN2 (11723855_a_at) / Fold change /veh CASKIN2 (11723855_a_at) / RFU LOC730098 (11760151_x_at) / Fold change /veh LOC730098 (11760151_x_at) / RFU OR4N2 (11742367_at) / Fold change /veh OR4N2 (11742367_at) / RFU PRRT2 (11749266_a_at) / Fold change /veh PRRT2 (11749266_a_at) / RFU SNX32 (11753110_a_at) / Fold change /veh SNX32 (11753110_a_at) / RFU CDHR5 (11726645_a_at) / Fold change /veh CDHR5 (11726645_a_at) / RFU RCAN1 (11760418_a_at) / Fold change /veh RCAN1 (11760418_a_at) / RFU FAM167A (11723789_a_at) / Fold change /veh FAM167A (11723789_a_at) / RFU FAM26E (11764081_at) / Fold change /veh FAM26E (11764081_at) / RFU ISYNA1 (11749810_s_at) / Fold change /veh ISYNA1 (11749810_s_at) / RFU ACY1 (11761880_at) / Fold change /veh ACY1 (11761880_at) / RFU 11764098_at / Fold change /veh 11764098_at / RFU SAMD14 (11745864_x_at) / Fold change /veh SAMD14 (11745864_x_at) / RFU NPB (11741838_a_at) / Fold change /veh NPB (11741838_a_at) / RFU TMPRSS6 (11731388_a_at) / Fold change /veh TMPRSS6 (11731388_a_at) / RFU KRTAP10-2 (11738614_at) / Fold change /veh KRTAP10-2 (11738614_at) / RFU ARHGAP8 /// PRR5-ARHGAP8 (11727945_x_at) / Fold change /veh ARHGAP8 /// PRR5-ARHGAP8 (11727945_x_at) / RFU KRTAP5-7 /// NADSYN1 (11734609_at) / Fold change /veh KRTAP5-7 /// NADSYN1 (11734609_at) / RFU RASL12 (11751679_a_at) / Fold change /veh RASL12 (11751679_a_at) / RFU CDKN2B (11736163_a_at) / Fold change /veh CDKN2B (11736163_a_at) / RFU PRF1 (11729649_at) / Fold change /veh PRF1 (11729649_at) / RFU, ZNF638 /// ZNF638-IT1 / Fold change vs veh, ZNF638 /// ZNF638-IT1 / RFU, PANK3 / Fold change vs veh, PANK3 / RFU, SH3YL1 / Fold change vs veh, SH3YL1 / RFU, ZEB2 / Fold change vs veh, ZEB2 / RFU, NRIP1 / Fold change vs veh, NRIP1 / RFU, PTTG1IP / Fold change vs veh, PTTG1IP / RFU, CAPN2 / Fold change vs veh, CAPN2 / RFU, MED14 / Fold change vs veh, MED14 / RFU, SNORA58 / Fold change vs veh, SNORA58 / RFU, C1orf63 / Fold change vs veh, C1orf63 / RFU, LRRFIP1 / Fold change vs veh, LRRFIP1 / RFU, NDUFAF7 / Fold change vs veh, NDUFAF7 / RFU, SLC12A2 / Fold change vs veh, SLC12A2 / RFU, IBTK / Fold change vs veh, IBTK / RFU, ESF1 / Fold change vs veh, ESF1 / Fold change vs veh, TMEM50B / RFU, TAOK1 / Fold change vs veh, TAOK1 / RFU, ACBD3 / Fold change vs veh, ACBD3 / RFU, TMA16 / Fold change vs veh, TMA16 / RFU, RWDD3 / Fold change vs veh, RWDD3 / RFU, BCAT1 / Fold change vs veh, BCAT1 / RFU, EDEM3 / Fold change vs veh, EDEM3 / RFU, TMEM33 / Fold change vs veh, TMEM33 / RFU, WDR75 / Fold change vs veh, WDR75 / RFU, AHCTF1 / Fold change vs veh, AHCTF1 / RFU, TFRC / Fold change vs veh, TFRC / RFU, ZDHHC17 / Fold change vs veh, ZDHHC17 / RFU, NOM1 / Fold change vs veh, NOM1 / RFU, ARL8B / Fold change vs veh, ARL8B / RFU, ZBTB11 / Fold change vs veh, ZBTB11 / RFU, TAMM41 / Fold change vs veh, TAMM41 / RFU, KIAA1704 /// LOC100996395 / Fold change vs veh, KIAA1704 /// LOC100996395 / RFU, ING1 / Fold change vs veh, ING1 / RFU, TRMT61B / Fold change vs veh, TRMT61B / RFU, FUBP3 / Fold change vs veh, FUBP3 / RFU, TP53 / Fold change vs veh, TP53 / RFU, TNKS2 / Fold change vs veh, TNKS2 / RFU, ZFP14 / Fold change vs veh, ZFP14 / RFU, ACTR2 / Fold change vs veh, ACTR2 / RFU, PPP3R1 / Fold change vs veh, PPP3R1 / RFU, PIK3R1 / Fold change vs veh, PIK3R1 / RFU, HNRNPA1 / Fold change vs veh, HNRNPA1 / RFU, RNF170 / Fold change vs veh, RNF170 / RFU, ZNF28 / Fold change vs veh, ZNF28 / RFU, RNGTT / Fold change vs veh, RNGTT / RFU, OGT / Fold change vs veh, OGT / RFU, BRD1 / Fold change vs veh, BRD1 / RFU, MARS / Fold change vs veh, MARS / RFU, ZNF655 / Fold change vs veh, ZNF655 / RFU, FAHD1 / Fold change vs veh, FAHD1 / RFU, BDP1 / Fold change vs veh, BDP1 / RFU, LRRCC1 / Fold change vs veh, LRRCC1 / RFU, ARID1A / Fold change vs veh, ARID1A / RFU, ZNF146 / Fold change vs veh, ZNF146 / RFU, ZNF330 / Fold change vs veh, ZNF330 / RFU, GPN3 / Fold change vs veh, GPN3 / RFU, C9orf123 / Fold change vs veh, C9orf123 / RFU, N4BP2L2 / Fold change vs veh, N4BP2L2 / RFU, ARFIP1 / Fold change vs veh, ARFIP1 / RFU, FAM179B / Fold change vs veh, FAM179B / RFU, BCL10 / Fold change vs veh, BCL10 / RFU, UHRF1BP1L / Fold change vs veh, UHRF1BP1L / RFU, BET1 / Fold change vs veh, BET1 / RFU, CNOT2 / Fold change vs veh, CNOT2 / RFU, ZNF268 / Fold change vs veh, ZNF268 / Fold change vs veh, ZNF507 / RFU, DGCR2 / Fold change vs veh, DGCR2 / RFU, WDSUB1 / Fold change vs veh, WDSUB1 / Fold change vs veh, HSP90B1 /// MIR3652 / RFU, ADSS / Fold change vs veh, ADSS / RFU, GK / Fold change vs veh, GK / RFU, ZNF148 / Fold change vs veh, ZNF148 / RFU, TAF9 / Fold change vs veh, TAF9 / RFU, SLC1A5 / Fold change vs veh, SLC1A5 / RFU, SLMO2 / Fold change vs veh, SLMO2 / RFU, ABCC4 / Fold change vs veh, ABCC4 / RFU, LOC101060439 /// RAP1B / Fold change vs veh, LOC101060439 /// RAP1B / RFU, RFX7 / Fold change vs veh, RFX7 / RFU, GTPBP10 / Fold change vs veh, GTPBP10 / RFU, CNEP1R1 / Fold change vs veh, CNEP1R1 / RFU, BIVM-ERCC5 /// ERCC5 / Fold change vs veh, BIVM-ERCC5 /// ERCC5 / RFU, ILF3 / Fold change vs veh, ILF3 / RFU 11762660_at / Fold change /veh 11762660_at / RFU VCAN (11757783_s_at) / Fold change /veh VCAN (11757783_s_at) / RFU DDX43 (11728927_at) / Fold change /veh DDX43 (11728927_at) / RFU KRT8 (11758188_x_at) / Fold change /veh KRT8 (11758188_x_at) / RFU NKD1 (11759106_at) / Fold change /veh NKD1 (11759106_at) / RFU SRD5A1 (11742802_a_at) / Fold change /veh SRD5A1 (11742802_a_at) / RFU TPSAB1 /// TPSB2 (11721975_s_at) / Fold change /veh TPSAB1 /// TPSB2 (11721975_s_at) / RFU GSTM3 (11746129_a_at) / Fold change /veh GSTM3 (11746129_a_at) / RFU IL23R (11737362_x_at) / Fold change /veh IL23R (11737362_x_at) / RFU TMEM51 (11727254_a_at) / Fold change /veh TMEM51 (11727254_a_at) / RFU PIWIL2 (11732686_x_at) / Fold change /veh PIWIL2 (11732686_x_at) / RFU ORM1 (11744905_x_at) / Fold change /veh ORM1 (11744905_x_at) / RFU CCDC152 (11743942_at) / Fold change /veh CCDC152 (11743942_at) / RFU ECM1 (11717891_a_at) / Fold change /veh ECM1 (11717891_a_at) / RFU IL23R (11748794_a_at) / Fold change /veh IL23R (11748794_a_at) / RFU TNFAIP8L3 (11732012_x_at) / Fold change /veh TNFAIP8L3 (11732012_x_at) / RFU MBOAT4 (11741988_at) / Fold change /veh MBOAT4 (11741988_at) / RFU 11764193_at / Fold change /veh 11764193_at / RFU TMEM53 (11763286_at) / Fold change /veh TMEM53 (11763286_at) / RFU MAGEB2 (11727129_at) / Fold change /veh MAGEB2 (11727129_at) / RFU TMEM200A (11744735_a_at) / Fold change /veh TMEM200A (11744735_a_at) / RFU CCDC152 (11751479_a_at) / Fold change /veh CCDC152 (11751479_a_at) / RFU FAM211A (11726209_a_at) / Fold change /veh FAM211A (11726209_a_at) / RFU RGS16 (11746705_a_at) / Fold change /veh RGS16 (11746705_a_at) / RFU VCAN (11755009_s_at) / Fold change /veh VCAN (11755009_s_at) / RFU RHOB (11743442_s_at) / Fold change /veh RHOB (11743442_s_at) / RFU RGS16 (11720943_a_at) / Fold change /veh RGS16 (11720943_a_at) / RFU RGS16 (11720944_at) / Fold change /veh RGS16 (11720944_at) / RFU, VPS4B / Fold change vs veh, VPS4B / RFU, CREB1 / Fold change vs veh, CREB1 / RFU, DNAJC13 / Fold change vs veh, DNAJC13 / RFU, GNAQ / Fold change vs veh, GNAQ / RFU, CDK5R1 / Fold change vs veh, CDK5R1 / RFU, ZRANB3 / Fold change vs veh, ZRANB3 / RFU, CUL4A / Fold change vs veh, CUL4A / RFU, CCNY / Fold change vs veh, CCNY / RFU, UFL1 / Fold change vs veh, UFL1 / RFU, COG3 / Fold change vs veh, COG3 / RFU, DIAPH2 / Fold change vs veh, DIAPH2 / RFU, SKA2 / Fold change vs veh, SKA2 / RFU, AFF3 / Fold change vs veh, AFF3 / RFU, LMF1 / Fold change vs veh, LMF1 / RFU, IPO11 / Fold change vs veh, IPO11 / RFU, DFFB / Fold change vs veh, DFFB / RFU, FOXP1 / Fold change vs veh, FOXP1 / RFU, CARD8 / Fold change vs veh, CARD8 / RFU, STRN3 / Fold change vs veh, STRN3 / RFU, ADK / Fold change vs veh, ADK / RFU, RASSF2 / Fold change vs veh, RASSF2 / RFU, WIPF1 / Fold change vs veh, WIPF1 / RFU, LARP1B / Fold change vs veh, LARP1B / RFU, RASA1 / Fold change vs veh, RASA1 / RFU, RB1 / Fold change vs veh, RB1 / RFU, PPFIA1 / Fold change vs veh, PPFIA1 / RFU, MAT2A / Fold change vs veh, MAT2A / RFU, CCT5 / Fold change vs veh, CCT5 / RFU, WDR92 / Fold change vs veh, WDR92 / RFU, CUX1 / Fold change vs veh, CUX1 / RFU, TTC7A / Fold change vs veh, TTC7A / RFU, TMEM135 / Fold change vs veh, TMEM135 / RFU, DEPTOR / Fold change vs veh, DEPTOR / RFU, CPM / Fold change vs veh, CPM / RFU, DNAJB6 / Fold change vs veh, DNAJB6 / RFU, CACNA2D3 / Fold change vs veh, CACNA2D3 / RFU, DTX4 / Fold change vs veh, DTX4 / RFU, TFCP2 / Fold change vs veh, TFCP2 / RFU, GMCL1 /// GMCL1P1 / Fold change vs veh, GMCL1 /// GMCL1P1 / RFU, AEBP2 / Fold change vs veh, AEBP2 / RFU, SNHG1 /// SNORD22 /// SNORD25 /// SNORD26 /// SNORD27 /// SNORD28 /// SNORD29 /// SNORD31 / Fold change vs veh, SNHG1 /// SNORD22 /// SNORD25 /// SNORD26 /// SNORD27 /// SNORD28 /// SNORD29 /// SNORD31 / Fold change (Aza/veh), C12orf56 (ProbeSet 11735607_a_at) / Fold change (ACY-1035/veh), C12orf56 (ProbeSet 11735607_a_at) / Fold change (Aza/veh), FGFR1OP (ProbeSet 11751329_s_at) / Fold change (ACY-1035/veh), FGFR1OP (ProbeSet 11751329_s_at) / Fold change (Aza/veh), VPS36 (ProbeSet 11739960_a_at) / Fold change (ACY-1035/veh), VPS36 (ProbeSet 11739960_a_at) / RFU SYPL1 (11715823_x_at) / Fold change /veh SYPL1 (11715823_x_at) / RFU IGFBP7 (11715501_s_at) / Fold change /veh IGFBP7 (11715501_s_at) / RFU REEP3 (11722064_at) / Fold change /veh REEP3 (11722064_at) / RFU IGLL1 (11728026_x_at) / Fold change /veh IGLL1 (11728026_x_at): dose or concentration left out as unconfirmed
Conditions: MV-4-11 cells, 48 hours

## Nc1ccc(-c2cccs2)cc1NC(=O)c1ccc2c(c1)cc(C1CC1)n2CCN1CCOCC1 [ACY-1035]
  Fold change /veh FAM167A (11723789_a_at): 1.14
